Results from patent publication US10294202B2, “Pyrrolidinones as herbicides” (FMC Corporation, priority 2013, dated 2019).

Key:
corn = assay: Test A pre-/postemergence herbicide test; format: in vivo, Zea mays; settings: Postemergence
Method in brief: (§1)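 Greenhouse pot test with pre- and postemergence application of surfactant-containing solvent formulations. Postemergence plants were 2–10 cm, one- to two-leaf stage. Response scored visually after ~10 days, 0 (no effect) to 100 (complete control).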

giant foxtail = assay: Test A pre-/postemergence herbicide test; format: in vivo, Setaria faberii
Method in brief: as §1

rice = assay: Test B flooded paddy test; format: in vivo, Oryza sativa; settings: 500 g ai/ha, Flood; scale of 0 to 100 where 0 is no effect and 100 is complete control
Method in brief: (§2)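 2-leaf plants; flood 3 cm over soil; compound into paddy water; depth held. Greenhouse 13–15 d. Visual rating vs controls, 0 (no effect) to 100 (complete control); dash = not tested.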

pigweed = assay: Test A pre-/postemergence herbicide test; format: in vivo, Amaranthus retroflexus
Method in brief: as §1

galium = assay: Test A postemergence herbicide test; format: in vivo, Galium aparine
Method in brief: (§3)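 Blackgrass and galium grown in pots of loam soil–sand blend, treated postemergence at 2–10 cm height, one- to two-leaf stage. Plants kept in greenhouse ~10 days, then visually rated for injury against untreated controls on a 0–100 scale (0 no effect, 100 complete control).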

ryegrass, Italian = assay: Test A pre-/postemergence herbicide test; format: in vivo, Lolium multiflorum
Method in brief: as §1

ragweed = assay: Test A pre-/postemergence herbicide test; format: in vivo, Ambrosia elatior
Method in brief: as §1

sedge, umbrella = assay: Test B flooded paddy test; format: in vivo, Cyperus difformis; settings: 500 g ai/ha, Flood; scale of 0 to 100 where 0 is no effect and 100 is complete control
Method in brief: as §2

wheat = assay: Test A pre-/postemergence herbicide test; format: in vivo, Triticum aestivum; settings: Postemergence
Method in brief: as §1

barnyardgrass [1] = assay: Test B flooded paddy test; format: in vivo, Echinochloa crus-galli; settings: 500 g ai/ha, Flood; scale of 0 to 100 where 0 is no effect and 100 is complete control
Method in brief: as §2

blackgrass = assay: Test A postemergence herbicide test; format: in vivo, Alopecurus myosuroides
Method in brief: as §3

kochia = assay: Test A pre-/postemergence herbicide test; format: in vivo, Kochia scoparia
Method in brief: as §1

ducksalad = assay: Test B flooded paddy test; format: in vivo, Heteranthera limosa; settings: 500 g ai/ha, Flood; scale of 0 to 100 where 0 is no effect and 100 is complete control
Method in brief: as §2

barnyardgrass [2] = assay: Test A pre-/postemergence herbicide test; format: in vivo, Echinochloa crus-galli
Method in brief: as §1

[3] = 125 g ai/ha, visual rating on 0 to 100 scale (0 no effect, 100 complete control), approx. 10 days
[4] = 500 g ai/ha, 0 to 100 scale (0 no effect, 100 complete control)
[5] = Postemergence, 125 g ai/ha, visual rating on 0 to 100 scale (0 no effect, 100 complete control), approx. 10 days
[6] = Postemergence, 500 g ai/ha, 0 to 100 scale (0 no effect, 100 complete control)
[7] = Preemergence, 125 g ai/ha, 0 to 100 scale where 0 is no effect and 100 is complete control
[8] = preemergence, 500 g ai/ha, 0 to 100 scale, 0 is no effect and 100 is complete control
[9] = Preemergence, 500 g ai/ha, visual rating on 0 to 100 scale (0 no effect, 100 complete control)

Row | SMILES | Plant response rating, Corn (corn; [3]) | Plant response rating, Corn (corn; [4]) | Plant response rating, Foxtail, Giant (giant foxtail; [5]) | Plant response rating, Foxtail, Giant (giant foxtail; [6]) | Plant response rating, Foxtail, Giant (giant foxtail; [7]) | Plant response rating, Foxtail, Giant (giant foxtail; [8]) | Plant response rating, Rice (rice) | Plant response rating, Pigweed (pigweed; [5]) | Plant response rating, Pigweed (pigweed; [6]) | Plant response rating, Pigweed (pigweed; [7]) | Plant response rating, Pigweed (pigweed; [8]) | Plant response rating, Galium (galium; [3]) | Plant response rating, Galium (galium; [4]) | Plant response rating, Ryegrass, Italian (ryegrass, Italian; [5]) | Plant response rating, Ryegrass, Italian (ryegrass, Italian; [6]) | Plant response rating, Ryegrass, Italian (ryegrass, Italian; [7]) | Ryegrass, Italian plant response rating (ryegrass, Italian; [9]) | Plant response rating, Ragweed (ragweed; [5]) | Plant response rating, Ragweed (ragweed; [6]) | Plant response rating, Ragweed (ragweed; [7]) | other results
1 | O=C1NCC(c2ccc(Cl)o2)C1C(=O)Nc1cccc(F)c1F (stereo not drawn) [Compound 285] | 0 | 0 | 0 | 0 | 0 | 10 | 0 | 0 | 0 | 0 | 0 | 0 | 0 | 0 | 0 | 0 | 0 | 0 | 0 | 0 | Plant response rating, Ragweed (ragweed; [8]): 0; Plant response rating, Sedge, Umbrella (sedge, umbrella): 0; Plant response rating, Wheat (wheat; [3]): 0; Plant response rating, Wheat (wheat; [4]): 0; Plant response rating, Barnyardgrass (barnyardgrass [1]): 20; Plant response rating, Blackgrass (blackgrass; [3]): 0; Plant response rating, Blackgrass (blackgrass; [4]): 0; Plant response rating, Kochia (kochia; [5]): 0; Plant response rating, Kochia (kochia; [6]): 0; Plant response rating, Kochia (kochia; [7]): 0; Plant response rating, Kochia (kochia; [8]): 0; Plant response rating, Ducksalad (ducksalad): 100; Plant response rating, Barnyardgrass (barnyardgrass [2]; [5]): 20; Plant response rating, Barnyardgrass (barnyardgrass [2]; [6]): 70; Plant response rating, Barnyardgrass (barnyardgrass [2]; [7]): 0; Plant response rating, Barnyardgrass (barnyardgrass [2]; [8]): 0
2 | O=C1NCC(c2ccc(Cl)c(Cl)c2)C1C(=O)Nc1ccc(F)c(F)c1F (stereo not drawn) [Compound 286] | 0 | 0 | 60 | 70 | 80 | 80 | 10 | 0 | 0 | 20 | 30 | 0 | 0 | 0 | 20 | 0 | 20 | 0 | 0 | 0 | Plant response rating, Ragweed (ragweed; [8]): 0; Plant response rating, Sedge, Umbrella (sedge, umbrella): 0; Plant response rating, Wheat (wheat; [3]): 0; Plant response rating, Wheat (wheat; [4]): 0; Plant response rating, Barnyardgrass (barnyardgrass [1]): 15; Plant response rating, Blackgrass (blackgrass; [3]): 0; Plant response rating, Blackgrass (blackgrass; [4]): 0; Plant response rating, Kochia (kochia; [5]): 0; Plant response rating, Kochia (kochia; [6]): 20; Plant response rating, Kochia (kochia; [7]): 30; Plant response rating, Kochia (kochia; [8]): 40; Plant response rating, Ducksalad (ducksalad): 75; Plant response rating, Barnyardgrass (barnyardgrass [2]; [5]): 60; Plant response rating, Barnyardgrass (barnyardgrass [2]; [6]): 60; Plant response rating, Barnyardgrass (barnyardgrass [2]; [7]): 60; Plant response rating, Barnyardgrass (barnyardgrass [2]; [8]): 60
